Results as given in paper PMC9655874, “Analysis of Volatile Secondary Metabolites in Ocimum basilicum Cell Suspensions: Inhibition, In Silico Molecular Docking, and an ADMET Analysis against Proteolytic Enzymes of Rhynchophorus ferrugineus” (Plants, 2022).
In brackets after ≈: the same amount, converted by molar mass. Several values for one entry are separate records, joined by “and”; a condition that tells them apart may be missing. Equal values may be shown once.

How the values were obtained:
[1] = tested on: gut proteases of R. ferrugineus fourth larval instar; experiment: Specific protease inhibitors against gut proteases of fourth larval instar (in vitro); type: biochemical, Rhynchophorus ferrugineus; details: Figure S2, in vitro
Method: As a starting point (blank), an assessment combination not containing enzymes was utilized. TLCK (trypsin proteinase inhibitor), PMSF (general serine proteinase inhibitor), EDTA (EDTA-metalloproteinase inhibitor), iodoacetic acid (an iodoacetic acid-cysteine proteinase inhibitor), TPCK (chymotrypsin-proteinase inhibitor), and Leupeptin (as general proteinase inhibitor) were added to the reactions. Homogenates of larval fourth-gut tissue were prepared using the same methodology described for the enzyme activity test. The inhibitory test was conducted via a microplate assay, as reported previously. A series of inhibitor levels were prepared to determine the greatest inhibition activity. Concentrations of 0.01, 0.05, 0.1, and 1.0 mM leupeptin; 0.005, 0.01, 0.05, 0.1, and 1 mM TLCK and TPCK; 0.1, 1.0, 10, 50, and 100 mM PMSF; and 0.01, 0.05, 0.1, 1, and 2 mM iodoacetic acid, 100 mM; 1,10 phenanthroline, EDTA, and EGTA concentrations of 0.1, 1, 10, 50, and 100 mM.

R. ferrugineus adults = experiment: whole plant or invertebrate; type: in vivo; details: Rhynchophorus ferrugineus, read-out: LC50 (µg/mL) 95% CF
Method: (§1) Cells were suspended in the methanolic extract at serially increasing concentrations for 40 days. To dilute the compounds, TritonX-100 (0.1%) was added to acetone after the chemicals were dissolved. Adults or larvae of R. ferrugineus were purchased. They were then cultured using long lengths of sugar cane stem. The extracts’ anti-larvae action was assessed by applying topically to larvae and keeping them at 4–5 °C for 5 min. Utilizing a manually controlled micro-applicator, each larva had extract injected into its dorsum in three separate 10 µL doses using a 50-ll micro-syringe from Hertfordshire, UK’s Burkard Manufacturing Co., Ltd. (MS-N50; Shizuoka, Japan’s Ito Corp.). Five larvae in a box with three replications were fed on portions of long sugarcane stem measuring 10 cm. […] The sugarcane stem’s ten-centimeter-long portions cut into equal longitudinal halves were used to measure the antifeedant activity against adults. Long sections of sugarcane stem with a surface area of approximately 32.2 cm^2 were dried in air at room temperature, assuming a dipping time of 10 s and an initial serial concentration of (10 mL). Each treated object remained in a plastic container. Each box included an additional pair (male and female). Each therapy was administered ten times. In total, 24-, 48-, 72-, and 96-h feeding observations were assessed.
(§2) Statistics and probit analysis were performed using SPSS 25.0, as mentioned by Finney. To sum up, all numerical predictions of toxicity variables and findings were presented as the mean ± SE. We regressed mortality and translated the resulting dosage to an LC50 value (µg/mL). […] Enzyme activity data were analyzed using an ANOVA. Means were separated using the SNK (Student–Newman–Keuls) test, and deviations at the p ˂ 0.05 level were considered noteworthy.

[2] = tested on: R. ferrugineus 4th larvae; experiment: Topical application (contact insecticide) to fourth instar larvae; type: in vivo, Rhynchophorus ferrugineus; details: for LD50 (µg/Larvae) 95% CF: 4th larvae, topical, 95% confidence limits in brackets; for LD50: larvae
Method: as §1, §2

[3] = target: trypsin proteinase of R. ferrugineus midgut; experiment: Serine proteinase specific activity, trypsin (in vitro); details: 4th instar midgut homogenate
Method: (§4) We used a serine protease assay buffer and a modified version of the fast microplate method to analyze the serine proteinase’s specific activity in mixtures (150 µL) [26]. […] The sample (10 µL) was diluted using an assay buffer to 50 µL to determine the presence of trypsin proteinase, chymotrypsin proteinase, and elastase. Assay buffer was used to dilute stock substrates of BAρNA (100 mg/mL DMSO), both SAAPFρNA and SAAPLρNA (100 mg/mL DMF), to 1.0 mg/mL. To halt the reaction after 15 min of incubation at 37 °C, 50 µL of acetic acid (30%, v/v) was added. The intensity of the activity was measured using a 405 nm ELISA plate reader. A denaturation enzyme was used in place of an active enzyme in the experiment mixture. For three substrates (SAAPLρNA, BAρNA, and SAAPFρNA), activity levels of certain proteinases were assessed as OD mg^−1 protein min^−1.
(§5) An experiment that was set up free of potential inhibitors served as a control. An ELISA plate fast reader measured the enzymes’ absorption at various wavelengths. For each inhibitor, the control enzyme’s percentage activity was assessed for each enzyme. Four instars midgut larvae were treated with previous concentrations of extracts or compounds, assessed as previously mentioned, to measure the protease activity in vivo. Larvae were subjected to extract- and compound-treated leaf discs for 24 h.

[4] = tested on: total proteases of R. ferrugineus midgut; experiment: Total protease activity in midgut of treated larvae (in vivo); details: larvae treated 24 h, midgut preparation
Method: (§6) The homogenate of R. ferrugineus 4th midgut instar larvae (lab strain) was assayed for total proteolytic enzyme activity using azocasein, as Darrag et al. [26], with modifications. Ten 4th midgut larval homogenates were carefully removed, incised, and then rinsed in a solution containing 0.9% NaCl before even being homogenized in a buffer (500 µL) containing 5 mM dithiothreitol (DTT), 0.1% (v/v) Triton X-100, and 50 mM N-2-hydroxyethyl piperazine-N′-2-ethane sulphonic acid (HEPS), and 8.0 pH. It was spun in a centrifuge (Sigma 3k30), and the remaining homogenates were from a preliminary phase for 30 min at 5000 rpm. Using the supernatants, the protein concentration and proteolytic enzyme activity were determined. […] Before each reaction experiment, 40-day-old methanolic extract of cell suspension, pure chemicals, and 10 μL of enzyme specimens were incubated for 10 min. The addition of the substrate initiated the reaction, which was allowed for 20 min in the case of leupeptin before being terminated 180 min later by adding 300 µL of cold tri-chloroacetic acid (TCA) (10%, v/v). Twenty minutes were spent centrifuging the mixture at 5000 rpm (Sigma 3k30). Overall, 10 µL of NaOH (10 N) was added to the supernatant, and the absorbance was measured using an ELISA plate reader at 450 nm to quantify the enzymes’ specific activity as OD450/mg protein/h.
as §5

[5] = target: metalloprotease of R. ferrugineus midgut; experiment: Metalloproteinase specific activity, CEGR substrate (in vitro); details: 4th instar midgut homogenate
Method: (§7) The ten midgut larvae from the fourth stage were neatly eliminated, dissected, and repeatedly washed with 0.9% NaCl solution. A 500 µL protease test solution, including 50 mM HEPS, 0.1% Triton X-100, and 5 mM DTT (pH 8.0), was utilized to homogenize the midgut instar. The homogenates were then centrifuged employing a Sigma 3k30 (cooling centrifuge) at 5000 rpm for 30 min to evaluate the supernatant’s enzyme activity and protein content. Before introducing CEGR (125 µL, 2% (w/v)), each experiment’s supernatant (10 µL) was incubated in an assay buffer (60 µL) at 37 °C for 20 min (pH 8). During a 10 min incubation period without a substrate, 10 µL enzyme samples were tested (20 min. for EDTA, EGTA, 1.10, Phenanthroline). After 180 min at 37 °C, 300 µL of cold TCA, 10% (v/v), was used to terminate the reaction. For the next 20 min, the mixture was spun (5000 rpm, Sigma 3K30). The absorbance was measured at 450 nm after mixing the supernatant with hydroxide solution (10 µL, 10 N) using an ELISA reader. An enzyme-free assay combination was utilized as a blank, and particular activity was evaluated utilizing the OD493 mg^−1 protein min^−1 and an enzyme-free blank specimen.
as §5

[6] = target: total proteases of R. ferrugineus midgut; experiment: Total proteolytic enzyme activity of 4th instar midgut homogenate, azocasein (in vitro)
Method: as §6, §5

[7] = tested on: trypsin proteinase of R. ferrugineus midgut; experiment: Trypsin activity in midgut of treated larvae (in vivo); details: larvae treated 24 h, midgut preparation
Method: as §4, §5

[8] = tested on: metalloprotease of R. ferrugineus midgut; experiment: Metalloprotease activity in midgut of treated larvae (in vivo); details: larvae treated 24 h, midgut preparation
Method: as §7, §5

[9] = target: cysteine protease of R. ferrugineus midgut; experiment: Cysteine proteinase activity (in vitro); type: biochemical, Rhynchophorus ferrugineus; details: 4th instar midgut homogenate
Method: (§3) Utilizing the substrate N-benzoyl-Phe-Val-Arg-p-nitroanilide hydrochloride and certain modifications, the cysteine proteinases of R. ferrugineus homogenate from the fourth midgut instar was tested for activity. Ten larvae of the fourth midgut were carefully taken out, dissected, and periodically washed with 0.9% (w/v) NaCl solution, assay buffer containing 50 mM HEPS, 5 mM DTT, and 0.1% Triton X-100 (v/v) (pH 8.0, 500 µL) was used to homogenize the samples. The homogenates were spun using a cooling Sigma 3k30 centrifuge for 30 min at 5000 rpm. […] Before introducing 100 µL of the substrate, 10 µL of the supernatant was incubated in assay buffer (60 µL, pH = 8) at 37 °C for 30 min. Enzyme samples in 10 µL were incubated for 10 min with iodoacetic acid before the addition of the substrate. […] The absorbance at 520 nm was measured after spinning the reaction for 6 min at 5000 rpm. The activity in the midgut was assayed at OD520.60 min^−1 mg^−1 of protein with an ELISA rapid reader.

[10] = tested on: cysteine protease of R. ferrugineus midgut; experiment: Cysteine protease activity in midgut of treated larvae (in vivo); parameters: species or system Rhynchophorus ferrugineus; details: larvae treated 24 h, midgut preparation
Method: as §3

[11] = target: elastase of R. ferrugineus midgut; experiment: Serine proteinase specific activity, elastase (in vitro); type: biochemical, Rhynchophorus ferrugineus; details: 4th instar midgut homogenate
[12] = tested on: elastase of R. ferrugineus midgut; experiment: Elastase activity in midgut of treated larvae (in vivo); parameters: species or system Rhynchophorus ferrugineus; details: larvae treated 24 h, midgut preparation

Structure (SMILES)	Effect on extracted gut proteases of the fourth larval instar [1]	LC50 (R. ferrugineus adults)	LD50 (µg/Larvae) 95% CF [2]	LD50 ([2]; topical application)	IC50 trypsin proteinase (in vitro) [3]	IC50 total proteases (in vivo) [4]	IC50 metalloprotease (in vitro) [5]	IC50 total proteases (in vitro) [6]	IC50 trypsin proteinase (in vivo) [7]	IC50 metalloprotease (in vivo) [8]	LD50 [2]	IC50 cysteine protease (in vitro) [9]	IC50 cysteine protease (in vivo) [10]	IC50 elastase (in vitro) [11]	IC50 elastase (in vivo) [12]
c1cnc2c(c1)ccc1cccnc12 [1,10 phenanthroline]	significantly inhibited														
C=C/C(C)=C/CC=C(C)C [(E)-β-ocimene]		3010 µg/mL (≈ 22100 µM)	31.2 (27.4–32.8) µg/Larvae	31.2 µg/larva	157.2 µg/mL (≈ 1150 µM)	273.2 µg/mL (≈ 2010 µM)	321.7 µg/mL (≈ 2360 µM)	207.4 µg/mL (≈ 1520 µM)							
O=C(O)CN(CCN(CC(=O)O)CC(=O)O)CC(=O)O [EDTA]	significantly inhibited														
O=C(O)CN(CCOCCOCCN(CC(=O)O)CC(=O)O)CC(=O)O [EGTA]	significantly inhibited														
Cc1ccc(S(=O)(=O)N[C@@H](CCCCN)C(=O)CCl)cc1 [TLCK]	significantly inhibited														
Cc1ccc(S(=O)(=O)N[C@@H](Cc2ccccc2)C(=O)CCl)cc1 [TPCK]	significantly inhibited														
C=CCc1ccc(OC)cc1 [estragole]		3590 µg/mL (≈ 24200 µM)			257.5 µg/mL (≈ 1740 µM)	314.8 µg/mL (≈ 2120 µM)	627.8 µg/mL (≈ 4240 µM)	254.7 µg/mL (≈ 1720 µM)	628.7 µg/mL (≈ 4240 µM)	1014.1 µg/mL (≈ 6840 µM)					
C=C1/C=C/[C@H](C(C)C)CC/C(C)=C/CC1 [germacrene D]		2040 µg/mL (≈ 10000 µM)	21.3 (19.7–22.5) µg/Larvae	21.3 µg/larva	144.2 µg/mL (≈ 706 µM)	861.2 µg/mL (≈ 4210 µM)	112.3 µg/mL (≈ 550 µM)	182.1 µg/mL (≈ 891 µM)		574.6 µg/mL (≈ 2810 µM)					
O=C(O)CI [iodoacetic acid]	significantly inhibited														
CC(C)=CCC/C(C)=C\CO [nerol]		1950 µg/mL (≈ 12600 µM)	15.6 (14.3–16.2) µg/Larvae	15.6 µg/larva	68.1 µg/mL (≈ 441 µM)	248.6 µg/mL (≈ 1610 µM)	106.7 µg/mL (≈ 692 µM)	188.3 µg/mL (≈ 1220 µM)	186.3 µg/mL (≈ 1210 µM)	189.1 µg/mL (≈ 1230 µM)	15.6 µg/larva				
C=C(C)C1CCC(C)C2=C(C1)C(C)CC2 (stereo not drawn) [α-guaiene]		1490 µg/mL (≈ 7300 µM)	19.2 (17.8–20.7) µg/Larvae	19.2 µg/larva	66.8 µg/mL (≈ 327 µM)	694.7 µg/mL (≈ 3400 µM)	124.9 µg/mL (≈ 611 µM)	107.4 µg/mL (≈ 526 µM)	454.4 µg/mL (≈ 2220 µM)	594.7 µg/mL (≈ 2910 µM)		238.5 µg/mL (≈ 1170 µM)	642.3 µg/mL (≈ 3140 µM)		
C=C1CCC2CC1C2(C)CCC=C(C)C (stereo not drawn) [β-bergamotene]		1290 µg/mL (≈ 6330 µM)	17.2 (16.1–18.4) µg/Larvae	17.2 µg/larva	58.5 µg/mL (≈ 286 µM)	598.3 µg/mL (≈ 2930 µM)	134.8 µg/mL (≈ 660 µM)	78.9 µg/mL (≈ 386 µM)	284.5 µg/mL (≈ 1390 µM)	613.5 µg/mL (≈ 3000 µM)		119.6 µg/mL (≈ 585 µM)	521.4 µg/mL (≈ 2550 µM)		
C=C1CC/C=C(\C)CC[C@@H]2[C@@H]1CC2(C)C [β-caryophyllene]		1520 µg/mL (≈ 7450 µM)	20.1 (18.7–21.4) µg/Larvae	20.1 µg/larva	70.4 µg/mL (≈ 344 µM)	748.2 µg/mL (≈ 3660 µM)	314.5 µg/mL (≈ 1540 µM)	176.3 µg/mL (≈ 863 µM)	489.3 µg/mL and 542.8 µg/mL			204.4 µg/mL (≈ 1000 µM)	586.3 µg/mL (≈ 2870 µM)		
C=CC(=C)CCC=C(C)CCC=C(C)C [β-farnesene]		1360 µg/mL (≈ 6640 µM)	18.4 (17.1–19.7) µg/Larvae	18.4 µg/larva	60.2 µg/mL (≈ 295 µM)	675.2 µg/mL (≈ 3300 µM)	101.5 µg/mL (≈ 497 µM)	88.6 µg/mL (≈ 434 µM)	425.8 µg/mL (≈ 2080 µM)	545.7 µg/mL (≈ 2670 µM)		128.4 µg/mL (≈ 628 µM)	536.8 µg/mL (≈ 2630 µM)		
CC1=CCC(C(C)C)=CC1 [γ-terpinene]					229.7 µg/mL (≈ 1690 µM)	337.4 µg/mL (≈ 2480 µM)	526.8 µg/mL (≈ 3870 µM)	268.1 µg/mL (≈ 1970 µM)	594.1 µg/mL (≈ 4360 µM)					154.3 µg/mL (≈ 1130 µM)	315.8 µg/mL (≈ 2320 µM)
